Reference: US20260224524A1, “A PHARMACEUTICAL COMPOSITION TARGETING MUTANT P53 AND HER2” (DR DOZO LABORATORIES, priority 2023, published 2026)

What was measured:
[1] = system: Human Breast Cancer Cell Line MDA-MB-231; test: Growth inhibition (% control growth, LC50, TGI, GI50) MDA-MB-231; assay type: cell-based
Description: The therapeutic effect of […] (peak 5) and SA2 (peak 4) is evaluated against human […] cancer cell line MDA-MB-231 by calculating the percentage growth inhibition, drug concentration of test compound needed to inhibit cell growth by 50% (GI50) values.
The therapeutic effect of SACC is evaluated against human […] cancer cell lines MDA-MB-231 by calculating the percentage growth inhibition, drug concentration of test compound needed to inhibit cell growth by 50% (GI50) values.

[2] = system: human tumour xenograft MDA-MB-231; test: Human tumour xenograft MDA-MB-231 model, tumour volume and relative tumour volume; assay type: in vivo, mice; set-up: Tumor Volume: unit not given here; details: Group B; for RTV (Relative Tumour Volume): 2.5 mg/kg i.v. day 1, 5, 9
Description: The therapeutic effect of SACC is evaluated against triple-negative breast cancer cell line MDA-MB-231 by analysing tumour volume and relative tumour volume. The study involved the use of six mice. These mice were administrated treatment according to the following Groups: […]

COc1cccc2c1C(=O)c1c(O)c3c(c(O)c1C2=O)C[C@@](O)(C(=O)CO)C[C@@H]3O[C@H]1C[C@H](N)[C@H](O)[C@H](C)O1 [ADR, Adriamycin]
% Control Growth ([1]; 10^−6M, Experiment 2): −86.2% | % Control Growth ([1]; 10^−6M, Experiment 3): −85.8% | % Control Growth ([1]; 10^−7M, Average Values): −87.8% | % Control Growth ([1]; 10^−7M, Experiment 1): −82.8% | % Control Growth ([1]; 10^−7M, Experiment 2): −91.0% | % Control Growth ([1]; 10^−7M, Experiment 3): −89.6% | GI50 ([1]; Homo sapiens, calculated from graph): < 10 µg/mL | TGI ([1]; calculated from graph): <10 µg/mL | RTV (Relative Tumour Volume) ([2]; day 9): 0.95 | RTV (Relative Tumour Volume) ([2]; day 15): 1.63 | RTV (Relative Tumour Volume) ([2]; day 18): 1.93 | RTV (Relative Tumour Volume) ([2]; day 21): 2.29 | RTV (Relative Tumour Volume) ([2]; day 25): 4.22 | RTV (Relative Tumour Volume) ([2]; day 30): 7.30 | tumour volume (in words) ([2]; ADR 2.5 mg/Kg): decreased tumour volume | Tumor Volume ([2]; ADR 2.5 mg/Kg, day 1, Mouse 1): 0.06 | Tumor Volume ([2]; ADR 2.5 mg/Kg, day 1, Mouse 2): 0.05 | Tumor Volume ([2]; ADR 2.5 mg/Kg, day 1, Mouse 3): 0.06 | Tumor Volume ([2]; ADR 2.5 mg/Kg, day 1, Mouse 4): 0.05 | Tumor Volume ([2]; ADR 2.5 mg/Kg, day 1, Mouse 5): 0.06 | Tumor Volume ([2]; ADR 2.5 mg/Kg, day 1, Mouse 6): 0.06 | Tumor Volume ([2]; ADR 2.5 mg/Kg, day 5, Mouse 1): 0.05 | Tumor Volume ([2]; ADR 2.5 mg/Kg, day 5, Mouse 2): 0.07 | Tumor Volume ([2]; ADR 2.5 mg/Kg, day 5, Mouse 3): 0.06 | Tumor Volume ([2]; ADR 2.5 mg/Kg, day 5, Mouse 4): 0.06 | Tumor Volume ([2]; ADR 2.5 mg/Kg, day 5, Mouse 5): 0.05 | Tumor Volume ([2]; ADR 2.5 mg/Kg, day 5, Mouse 6): 0.06 | Tumor Volume ([2]; ADR 2.5 mg/Kg, day 9, Mouse 1): 0.05 | Tumor Volume ([2]; ADR 2.5 mg/Kg, day 9, Mouse 2): 0.08 | Tumor Volume ([2]; ADR 2.5 mg/Kg, day 9, Mouse 3): 0.04 | Tumor Volume ([2]; ADR 2.5 mg/Kg, day 9, Mouse 4): 0.04 | Tumor Volume ([2]; ADR 2.5 mg/Kg, day 9, Mouse 5): 0.06 | Tumor Volume ([2]; ADR 2.5 mg/Kg, day 9, Mouse 6): 0.05 | Tumor Volume ([2]; ADR 2.5 mg/Kg, day 12, Mouse 1): 0.06 | Tumor Volume ([2]; ADR 2.5 mg/Kg, day 12, Mouse 2): 0.10 | Tumor Volume ([2]; ADR 2.5 mg/Kg, day 12, Mouse 3): 0.05 | Tumor Volume ([2]; ADR 2.5 mg/Kg, day 12, Mouse 4): 0.05 | Tumor Volume ([2]; ADR 2.5 mg/Kg, day 12, Mouse 5): 0.06 | Tumor Volume ([2]; ADR 2.5 mg/Kg, day 12, Mouse 6): 0.07 | Tumor Volume ([2]; ADR 2.5 mg/Kg, day 15, Mouse 1): 0.07 | Tumor Volume ([2]; ADR 2.5 mg/Kg, day 15, Mouse 2): 0.16 | Tumor Volume ([2]; ADR 2.5 mg/Kg, day 15, Mouse 3): 0.07 | Tumor Volume ([2]; ADR 2.5 mg/Kg, day 15, Mouse 4): 0.06 | Tumor Volume ([2]; ADR 2.5 mg/Kg, day 15, Mouse 5): 0.08 | Tumor Volume ([2]; ADR 2.5 mg/Kg, day 15, Mouse 6): 0.11 | Tumor Volume ([2]; ADR 2.5 mg/Kg, day 18, Mouse 1): 0.07 | Tumor Volume ([2]; ADR 2.5 mg/Kg, day 18, Mouse 2): 0.21 | Tumor Volume ([2]; ADR 2.5 mg/Kg, day 18, Mouse 3): 0.07 | Tumor Volume ([2]; ADR 2.5 mg/Kg, day 18, Mouse 4): 0.07 | Tumor Volume ([2]; ADR 2.5 mg/Kg, day 18, Mouse 5): 0.07 | Tumor Volume ([2]; ADR 2.5 mg/Kg, day 18, Mouse 6): 0.16 | Tumor Volume ([2]; ADR 2.5 mg/Kg, day 21, Mouse 1): 0.05 | Tumor Volume ([2]; ADR 2.5 mg/Kg, day 21, Mouse 2): 0.23 | Tumor Volume ([2]; ADR 2.5 mg/Kg, day 21, Mouse 3): 0.08 | Tumor Volume ([2]; ADR 2.5 mg/Kg, day 21, Mouse 4): 0.11 | Tumor Volume ([2]; ADR 2.5 mg/Kg, day 21, Mouse 5): 0.13 | Tumor Volume ([2]; ADR 2.5 mg/Kg, day 21, Mouse 6): 0.17 | Tumor Volume ([2]; ADR 2.5 mg/Kg, day 25, Mouse 1): 0.08 | Tumor Volume ([2]; ADR 2.5 mg/Kg, day 25, Mouse 2): 0.31 | Tumor Volume ([2]; ADR 2.5 mg/Kg, day 25, Mouse 3): 0.33 | Tumor Volume ([2]; ADR 2.5 mg/Kg, day 25, Mouse 4): 0.24 | Tumor Volume ([2]; ADR 2.5 mg/Kg, day 25, Mouse 5): 0.17 | Tumor Volume ([2]; ADR 2.5 mg/Kg, day 25, Mouse 6): 0.29 | Tumor Volume ([2]; ADR 2.5 mg/Kg, day 30, Mouse 2): 0.53 | Tumor Volume ([2]; ADR 2.5 mg/Kg, day 30, Mouse 3): 0.55 | Tumor Volume ([2]; ADR 2.5 mg/Kg, day 30, Mouse 4): 0.29 | Tumor Volume ([2]; ADR 2.5 mg/Kg, day 30, Mouse 5): 0.28 | Tumor Volume ([2]; ADR 2.5 mg/Kg, day 30, Mouse 6): 0.40
